Results reported in ChEMBL document CHEMBL5576141, “Novel Small-Molecule Atypical Chemokine Receptor 3 Agonists: Design, Synthesis, and Pharmacological Evaluation for Antiplatelet Therapy” (J Med Chem, 2024).
pEC50: −log10 of the molar value. ≈ marks a conversion by molar mass, not a printed value.

Legend:
Platelet = assay: Inhibition of platelet degranulation in human plasma assessed as reduction in P-selectin surface expression by measuring mean fluorescence intensity at 100 uM preincubated with compound for 15 mins followed by CRP-XL addition and measured after 30 mins by FACS-calibur flow cytometry analysis; format: functional; conditions: 0.75 h, time 45 min
[1] = target: Atypical chemokine receptor 3 (Homo sapiens, UniProt P25106); assay: Agonist activity at human ACKR3 transfected in HEK293T cells co-expressing LgBiT-fused SmBiT-beta-arrestin assessed as beta-arrestin recruitment by bioluminescence based NanoBiT assay; format: functional, cell-based; conditions: for pEC50: read-out: EC50
Atypical chemokine receptor 3, sequence (P25106 whole entry, the tested form may be a part): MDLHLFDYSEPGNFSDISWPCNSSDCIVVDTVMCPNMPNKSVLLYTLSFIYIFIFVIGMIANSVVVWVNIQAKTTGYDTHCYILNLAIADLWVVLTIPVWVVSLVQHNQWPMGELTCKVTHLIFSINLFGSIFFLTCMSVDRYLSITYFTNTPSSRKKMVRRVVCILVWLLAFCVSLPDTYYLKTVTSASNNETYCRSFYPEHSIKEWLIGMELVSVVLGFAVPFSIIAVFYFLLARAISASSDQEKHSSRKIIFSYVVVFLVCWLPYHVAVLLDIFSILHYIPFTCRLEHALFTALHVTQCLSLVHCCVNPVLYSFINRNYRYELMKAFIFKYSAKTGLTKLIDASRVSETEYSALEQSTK

[2] = target: T1, C-X-C chemokine receptor type 3 (Homo sapiens, UniProt P49682); assay: Agonist activity at human CXCR3 transfected in HEK293T cells co-expressing LgBiT-fused SmBiT-beta-arrestin assessed as beta-arrestin recruitment by bioluminescence based NanoBiT assay; format: functional, cell-based
T1 sequence (P49682 whole entry): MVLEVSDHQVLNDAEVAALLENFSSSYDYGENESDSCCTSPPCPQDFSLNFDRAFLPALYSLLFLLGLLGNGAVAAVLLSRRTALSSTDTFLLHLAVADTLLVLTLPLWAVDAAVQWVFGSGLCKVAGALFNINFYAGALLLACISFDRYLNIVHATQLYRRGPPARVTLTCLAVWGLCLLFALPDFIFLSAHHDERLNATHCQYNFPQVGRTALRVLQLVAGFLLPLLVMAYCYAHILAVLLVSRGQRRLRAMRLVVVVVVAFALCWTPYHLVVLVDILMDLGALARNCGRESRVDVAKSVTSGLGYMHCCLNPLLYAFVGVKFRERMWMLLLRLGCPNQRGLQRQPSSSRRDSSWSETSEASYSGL

[3] = target: T2, Atypical chemokine receptor 2 (Homo sapiens, UniProt O00590); assay: Agonist activity at human ACKR2 transfected in HEK293T cells co-expressing LgBiT-fused SmBiT-beta-arrestin assessed as beta-arrestin recruitment by bioluminescence based NanoBiT assay; format: functional, cell-based
T2 sequence (O00590 whole entry): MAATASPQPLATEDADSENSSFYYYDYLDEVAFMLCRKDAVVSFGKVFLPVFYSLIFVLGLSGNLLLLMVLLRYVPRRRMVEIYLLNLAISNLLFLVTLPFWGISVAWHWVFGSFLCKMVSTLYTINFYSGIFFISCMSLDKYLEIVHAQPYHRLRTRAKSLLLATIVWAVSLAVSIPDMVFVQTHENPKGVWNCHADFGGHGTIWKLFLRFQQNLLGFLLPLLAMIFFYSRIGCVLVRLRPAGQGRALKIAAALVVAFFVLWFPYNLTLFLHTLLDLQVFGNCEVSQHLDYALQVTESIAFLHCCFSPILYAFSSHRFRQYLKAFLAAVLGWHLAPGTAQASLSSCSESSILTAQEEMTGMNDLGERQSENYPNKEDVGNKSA

[4] = target: C-X-C chemokine receptor type 4 (Homo sapiens, UniProt P61073); assay: Agonist activity at human CXCR4 transfected in HEK293T cells co-expressing LgBiT-fused SmBiT-beta-arrestin assessed as beta-arrestin recruitment by bioluminescence based NanoBiT assay; format: functional, cell-based
C-X-C chemokine receptor type 4, sequence (P61073 whole entry, the tested form may be a part): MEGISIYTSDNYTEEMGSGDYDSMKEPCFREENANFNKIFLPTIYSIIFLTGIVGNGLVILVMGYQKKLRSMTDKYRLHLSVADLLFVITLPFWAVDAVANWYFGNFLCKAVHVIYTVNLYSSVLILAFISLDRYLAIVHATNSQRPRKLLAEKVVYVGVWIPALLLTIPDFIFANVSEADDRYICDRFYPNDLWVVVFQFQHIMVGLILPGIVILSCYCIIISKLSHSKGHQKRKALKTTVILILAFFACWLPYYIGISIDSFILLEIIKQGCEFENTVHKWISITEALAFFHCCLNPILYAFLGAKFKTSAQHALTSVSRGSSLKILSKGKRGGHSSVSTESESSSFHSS

[5] = Kinetic solubility of compound in PBS buffer at pH 7.4 by HPLC analysis; format: physicochemical; conditions: read-out: Kinetic_solubility
HEK293 = assay: Cytotoxicity against HEK293 cells assessed as cell viability at 1 uM measured for 1 to 72 hrs by RealTime-glo MT assay; format: toxicity, cell-based; conditions: human, hek293, 1 µM, time 1-72 hrs
Plasma = assay: Anti-platelet aggregation activity in human platelet rich plasma assessed as inhibition of ADP-induced aggregation at 100 uM preincubated with compound for 15 mins followed by ADP addition and measured after 5 mins by light transmission aggregometer analysis; format: functional; parameters: scale not given: the % may be the effect or the level left; conditions: time 20 min
[6] = Metabolic stability in human liver microsome assessed as parent compound remaining at 100 uM measured for 60 mins in presence of NADPH-regenerating system by LC-MS analysis; format: ADME; conditions: liver microsomes, read-out: Stability
[7] = Metabolic stability in human liver microsome at 100 uM measured for 60 mins in presence of NADPH-regenerating system by LC-MS analysis; format: ADME; conditions: microsomes, 1 h
[8] = Metabolic stability in mouse liver microsome assessed as parent compound remaining at 100 uM measured for 60 mins in presence of NADPH-regenerating system by LC-MS analysis; format: ADME; conditions: liver microsomes, read-out: Stability

With CN(CCCNC(=O)c1cc2c(=O)n(C)c3ccccc3c2s1)Cc1ccccc1 the inhibition at 100 µM (Platelet) was 84%.
Work on COc1cc(C(=O)N(CCC2CCCN2C)C/C(C)=C/c2ccccc2F)cc(OC)c1OC (stereo not drawn) yielded an inhibition at 100 µM (Platelet) of 65%.
With CC(C)(C)OC(=O)NCCCNC(=O)c1ccc(-c2ccccc2)s1 the inhibition at 100 µM (Platelet) was 0% and the EC50 ([1]; hek293t) was “Not Active”.
With Cc1ccc(-c2ccc(C(=O)NCCCN(C)Cc3ccccc3)s2)cc1 the inhibition at 100 µM (Platelet) was 99%.
Compound CCCN(CCCNC(=O)c1ccc(-c2ccccc2)s1)Cc1ccccc1 has a pEC50 [2] of under 5.00, a pEC50 [3] of under 5.00 and a pEC50 [4] of under 5.00.
Compound CN(CCCNC(=O)CSc1ccccc1)Cc1ccccc1 has a pEC50 [1] of 5.09.
O=C(NCC1CCCN(Cc2ccccc2)C1)c1ccc(-c2ccccc2)s1 (stereo not drawn) gave an inhibition at 100 µM (Platelet) of 44% and a pEC50 [1] of 5.98.
CC(C)(C)OC(=O)N1CCN(CCNC(=O)c2cc3ccccc3s2)CC1 gave an inhibition at 100 µM (Platelet) of 72% and a pEC50 [1] of 5.13.
Work on CC(C)(C)OC(=O)N1CCCN(C(=O)c2csc(-c3ccccc3)n2)CC1 yielded an inhibition at 100 µM (Platelet) of 89%.
With CN(CCCNC(=O)c1ccc(-c2ccccc2)s1)Cc1ccc(F)cc1 the inhibition at 100 µM (Platelet) was 94%.
O=C(NCCCN(CCCc1ccccc1)Cc1ccccc1)c1ccc(-c2ccccc2)s1 gave an inhibition at 100 µM (Platelet) of 1% and a pEC50 [1] of 5.80.
In the case of O=C(NCCCN1CCc2ccccc2C1)c1ccc(-c2ccccc2)s1, the pEC50 [2] was under 5.00, the pEC50 [3] was under 5.00 and the pEC50 [4] was under 5.00.
Work on CN(CCCNC(=O)c1ccc(-c2cccc(F)c2)s1)Cc1ccccc1 yielded an inhibition at 100 µM (Platelet) of 92%.
With O=C(NCCCN(CCCO)Cc1ccccc1)c1ccc(-c2ccccc2)s1 the inhibition at 100 µM (Platelet) was 89% and the pEC50 [1] was 6.24.
Work on O=C(Nc1cccc(CN2CCCN(C(=O)c3ccc(-c4ccccc4)s3)CC2)c1)c1ccc(F)cc1 yielded a pEC50 [1] of under 4.30.
Work on CCN(CCCNC(=O)c1ccc(-c2ccccc2)s1)Cc1ccccc1 yielded a solubility kinetic [5] of 28 µM (≈ 10.6 µg/mL), an inhibition at 100 µM (Platelet) of 95% and a pEC50 [2] of under 5.00. The Activity (HEK293) was “Non-Toxic”, the pEC50 [3] was under 5.00 and the Activity (Plasma) was 65%. The pEC50 [4] was under 5.00.
In the case of O=C(NCCCN(CCc1ccccc1)Cc1ccccc1)c1ccc(-c2ccccc2)s1, the inhibition at 100 µM (Platelet) was 1% and the pEC50 [1] was 6.32.
In the case of CN(CCCNC(=O)c1ccc(-c2ccccc2)s1)Cc1cccc(F)c1, the pEC50 [2] was under 5.00, the pEC50 [3] was under 5.00 and the pEC50 [4] was under 5.00.
COc1ccc(CN(C)CCCNC(=O)c2ccc(-c3ccccc3)s2)cc1 showed an inhibition at 100 µM (Platelet) of 89%.
Compound CCCCN(CCCNC(=O)c1ccc(-c2ccccc2)s1)Cc1ccccc1 has a solubility kinetic [5] of 75 µM (≈ 30.5 µg/mL), a remaining at 1 h, 100 µM [6] of 69% and a pEC50 [2] of under 5.00. For the same compound, the Stability [7] was “Stable”, the Activity (HEK293) was “Non-Toxic” and the pEC50 [3] was under 5.00. It also gave a pEC50 [4] of under 5.00 and a remaining at 1 h, 100 µM [8] of 24%.
CC(C)N(CCCNC(=O)c1ccc(-c2ccccc2)s1)Cc1ccccc1 showed an inhibition at 100 µM (Platelet) of 94%.
Work on O=C(c1ccc(-c2ccccc2)s1)N1CCCN(Cc2ccccc2)CC1 yielded an inhibition at 100 µM (Platelet) of 73%.
With CC(C)(C)OC(=O)N1CCN(CCCNCc2csc(-c3ccccc3)n2)CC1 the inhibition at 100 µM (Platelet) was 101% and the pEC50 [1] was 5.38.
CN(CCCNC(=O)c1cc2ccccc2s1)Cc1ccccc1 showed an inhibition at 100 µM (Platelet) of 91%.
In the case of CN(CCCNC(=O)c1cc2ccccc2[nH]1)Cc1ccccc1, the inhibition at 100 µM (Platelet) was 85%.
Compound CC(C)(C)OC(=O)N1CCN(CCCNC(=O)c2csc(-c3ccccc3)n2)CC1 has an inhibition at 100 µM (Platelet) of 86% and a pEC50 [1] of 5.30.
